Each structure is given as a SMILES string. Read-outs that look alike come from different tables or passages of the source.

For experiment [1], the target named is T1, Sheep Seminal Vesicle Cyclooxygenase (Ovis aries, UniProt P05979).
T1 construct: purchased Biomol (Plymouth Meeting, Pa.); host or cells: sheep seminal vesicle
T1 sequence (P05979 25-600): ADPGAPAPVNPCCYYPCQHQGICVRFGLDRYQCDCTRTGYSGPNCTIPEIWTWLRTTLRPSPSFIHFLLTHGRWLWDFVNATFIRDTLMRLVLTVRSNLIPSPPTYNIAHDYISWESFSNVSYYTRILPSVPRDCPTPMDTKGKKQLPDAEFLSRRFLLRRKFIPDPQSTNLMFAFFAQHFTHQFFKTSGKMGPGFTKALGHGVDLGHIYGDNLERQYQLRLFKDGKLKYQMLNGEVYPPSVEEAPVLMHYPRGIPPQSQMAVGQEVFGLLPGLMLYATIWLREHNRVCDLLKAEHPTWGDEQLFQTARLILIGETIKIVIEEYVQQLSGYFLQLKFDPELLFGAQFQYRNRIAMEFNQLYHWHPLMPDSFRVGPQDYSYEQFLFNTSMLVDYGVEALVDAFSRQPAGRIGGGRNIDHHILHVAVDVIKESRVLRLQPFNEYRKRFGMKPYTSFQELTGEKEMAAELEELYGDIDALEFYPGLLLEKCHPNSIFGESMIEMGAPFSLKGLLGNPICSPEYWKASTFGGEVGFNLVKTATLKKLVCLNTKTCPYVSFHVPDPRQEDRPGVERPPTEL
The experiment can be described thus: Procedure I: sheep seminal vesicle (SSV) cyclooxygenase inhibition. The class given is biochemical. The conditions noted are these: for IC50: SSV CO; for % INHIB. CO (Procedure I): dose 3 MPK unless otherwise stated (so in the source). Here is the method:
Sheep Seminal Vesicle Cyclooxygenase Sheep seminal vesicle (SSV) cyclooxygenase (95% pure, prostaglandin endoperoxide synthase, EC 1.14.99.1 specific activity 24 units/mg protein) obtained as a lyophilized powder from Biomol (Plymouth Meeting, Pa.) was reconstituted at a concentration of 59 mg/mL in Hanks' Balanced Salt Solution (HBSS). The enzyme was divided into 200 μL aliquots, snap frozen with liquid N2, and stored at -70° C. until immediately prior to use. Measurements of CO activity were carried out in polypropylene tubes containing 495 μL of HBSS to which was added 5 μL Of inhibitor or dimethylsulfoxide (DMSO; vehicle control) and 6 μL of SSV CO solution. The tubes were mixed on a vortex shaker, preincubated for 5 min at 37° C. prior to the initiation of the reaction. The reaction was started by the addition of [^14 C]-arachidonic acid (1-^14 C-AA, Amersham, Arlington Heights, Ill.) in 10 μL of methanol. Tubes were again vortexed and incubated in a water bath for 20 minutes after which the tubes were removed and the reaction stopped by acidification with the addition of 1 mL 2M formic acid. Lipophilic products were extracted with 3 mL chloroform and concentrated to dryness under N2. Each pellet was reconstituted with 40 μL of chloroform and spotted on a Whatman Silicon thin-layer chromatography plate and developed in a chromatography tank containing A-9 solvent (11:5:2:1 V:V:V:V, ethyl acetate:trimethyl-pentane:acetic acid:double distilled-H2 O). Radioactive cyclooxygenase products (prostaglandin D2, prostaglandin E2, etc.) were measured using a Bioscan System 200 Imaging Scanner. Inhibition of enzyme activity was calculated by comparing the areas under the curve produced in the presence or absence of test compound. In the following tables, the superscripts indicate the number of experiments and, unless otherwise stated, the dose at which % inhibition is reported is 3 MPK.

The test system of experiment [2] is CO (prostaglandin F2a or TxB2) in dog whole blood. The experiment can be described thus: Procedure IV: ex vivo eicosanoid synthesis in dog whole blood after oral dosing, CO. The conditions noted are these: Canis lupus familiaris, 5 MPK, read-out: % INHIB/HOURS CO (Proc. IV). Here is the method: (§1) Ex Vivo eicosanoid synthesis in dog whole blood. Adult beagle or mongrel dogs (10-15 kg) of either sex were fasted overnight prior to the initiation of each experiment. The forelimb was clipped and swabbed with an alcohol prep (70% isopropanol). Blood was drawn by venipuncture into syringes containing lithium heparin (Starstead, Newton N.C.) immediately prior to administration of compound or vehicle and then at various intervals following dosing. The test compound was administered orally as a suspension in 0.5% methocel. At various times after dosing, blood samples were drawn and placed on an electric rocker platform to assure complete and continuous mixing. White blood cell (wbc) counts were performed using a Sysmex hematology analyzer. This was done in an effort to normalize the number of leukocytes to be stimulated with calcium ionophore. A 1.0 mL aliquot of whole blood was challenged with 50 μL of a 2.6×10^-5 M solution of calcium ionophore A23187 (Calbiochem, La Jolla, Calif.) prepared in DMSO and diluted in HBSS. After a 15 minute incubation at 37° C., the reaction was stopped by placing the samples in an ice bath (4° C.) for 5 minutes and then centrifuged at 11,000×g for 5 minutes to separate the plasma fraction from blood cells. The plasma fraction was removed, diluted in an appropriate buffer, and analyzed for the presence of LTB4 and prostaglandin F2a or TxB2 by standard RIA techniques.
(§2) In the following tables, the superscripts indicate the number of experiments and, unless otherwise stated, the dose at which % inhibition is reported is 3 MPK.

Experiment [3] relates to 5-LO (LTB4) in dog whole blood. The experiment can be described thus: Procedure IV: ex vivo eicosanoid synthesis in dog whole blood after oral dosing, 5-LO. As to conditions: Canis lupus familiaris, 5 MPK, read-out: % INHIB/HOURS 5-LO (Proc. IV). Here is the method:
as §1, §2

By IC50 is commonly meant the point on the concentration scale where inhibition reaches its midpoint. A lower IC50 goes with inhibition by little substance. For `COc1ccc(-n2nc(CCOC(=O)N(O)C(C)C)c(Br)c2-c2ccc(Cl)cc2)cc1` [2-F], in experiment [1], the midpoint of inhibition, the IC50, lay at 0.48 µM. Besides, the “% INHIB. CO (Procedure I)” value in experiment [1] is given as 58%. The results for the inhibition at 5 mg/kg in experiment [2] (24 hours) and in experiment [3] (24 hours) were 42% and 11%, respectively.
Take `COc1ccc(-n2nc(CCOC(=O)N(C)O)c(Cl)c2-c2ccc(C)cc2)cc1` [2-I]: in experiment [1], half-maximal inhibition (IC50) was put at 3.5 µM and the “% INHIB. CO (Procedure I)” value is 80%. Also, in experiment [2] (6 hours), the inhibition at 5 mg/kg amounted to 0%. In experiment [3] (6 hours), the inhibition at 5 mg/kg turned out to be 0%.
`COc1ccc(-n2nc(CCOC(=O)N(O)C(C)C)c(Cl)c2-c2ccc(C)cc2)cc1` [2-J] had a half-maximal inhibitory concentration (IC50) in experiment [1] of 4.5 µM. The “% INHIB. CO (Procedure I)” value in experiment [1] is listed as 88%. The values for the inhibition at 5 mg/kg in experiment [2] (4 hours) and in experiment [3] (4 hours) were 73% and 26%, respectively.
Consider `COc1ccc(-n2nc(CCCOC(=O)N(C)O)cc2-c2ccc(Cl)cc2)cc1` [3-B], for which the “% INHIB. CO (Procedure I)” value in experiment [1] stood at 74%. Also, the inhibition at 5 mg/kg in experiment [2] (6 hours) was determined as 94%; in experiment [3] (6 hours) it was 11%.
Regarding `COc1ccc(-n2nc(CCCOC(=O)N(C)O)c(Cl)c2-c2ccc(Cl)cc2)cc1` [3-D], in experiment [1], the midpoint of inhibition, the IC50, lay at 2.55 µM. Further, in experiment [1], the “% INHIB. CO (Procedure I)” value is recorded as 68%. In addition, the inhibition at 5 mg/kg was found to be 93% in experiment [2] (2 hours) and 1% in experiment [3] (2 hours).
The molecule `COc1ccc(-n2nc(CCCOC(=O)N(O)C(C)C)c(Cl)c2-c2ccc(Cl)cc2)cc1` [3-E] registered an IC50 in experiment [1] of 5.8 µM. For the same molecule, the “% INHIB. CO (Procedure I)” value in experiment [1] is given as 26%. For the same molecule, the inhibition at 5 mg/kg in experiment [2] (2 hours) came to 76%; in experiment [3] (24 hours), 22%.
Turning to `COc1ccc(-n2nc(CCCOC(=O)N(C)O)c(Br)c2-c2ccc(Cl)cc2)cc1` [3-F], in experiment [1], the midpoint of inhibition, the IC50, lay at 2.29 µM and the “% INHIB. CO (Procedure I)” value turned out to be 78%. Also, in experiment [2] (2 hours), the inhibition at 5 mg/kg is 45%. Besides, the inhibition at 5 mg/kg in experiment [3] (2 hours) stood at 8%.

The values above are taken from patent US5387602A, “1.5-diphenyl-3-(N-hydroxycarbamoyloxyalkyl)pyrazoles” (Ortho Pharmaceutical Corporation, priority 1993, dated 1995).
